Source: patent publication US20230270764A1, “COMPOSITION COMPRISING CANNABINOIDS, TERPENES, AND FLAVONOIDS FOR TREATING DEPRESSION” (priority 2020, published 2023)

Test system: LPS-injected mice
Test: Sucrose preference test in the LPS-induced model of depression
Assay type: in vivo
Settings: Example 9; male C57BL/6, i.p. 1 h before LPS 330 µg/kg; mg/kg: CBD 30; CBDA 1 or 5; BCP 50; kaempferol 30; CBD 30 plus THC 10; CBD 30 plus kaempferol 30
From the text: In a preliminary screening experiment, subjects were 4-6 months-old male C57BL/6 (Jackson Laboratories, USA). Animals were housed 2-3/cage, kept in an air-conditioned room (23+°C) and given ad libitum access to food and water. The mice were kept in a reversed light/dark cycle, with lights off from 7 a.m. to 7 p.m. All experiments were approved by the Hebrew University of Jerusalem Ethics Committee on Animal Care and Use. In preparation for the Sucrose Preference Test, mice were habituated 2-3 times to sucrose drinking, by exposing them overnight to two graduated tubes, one containing water and the other containing sucrose solution (1%, w/v). Water and sucrose consumption were measured, and sucrose preference was computed by dividing the amount of sucrose consumed by drinking (ml sucrose) by the total drinking volume (ml of sucrose + water). One day later, the weight of the mice and the food in their cages was weighed for later analysis of food consumption and body weight changes. Groups of mice were injected intraperitoneally (i.p.) with either vehicle (cremophor, ethanol and PBS, 1:1:18 (v/v/v)) or a cannabinoid-based formulation (by itself or with another cannabinoid, or a terpene or a flavonoid). One hour later, each of these groups was injected with LPS (330 µg/kg). All injections were administered at a dose of 10 ml/kg. Four hours following the LPS injection, mice were tested in the Open-Field Test. In this test, the measured locomotor activity reflects not only motor capacity, but particularly the innate motivation for spatial exploration (which increases the distance travelled) and the anxiety level (which reduces the distance travelled, in general, and particularly the distance and time spent in the center of the open field). Each subject was placed near one of the walls of a white 50 X 50 cm^2 arena with 40 cm high walls. The distance travelled (cm), the velocity of the movement (cm/second), the time spent (seconds), distance travelled (cm) in the center area of the arena, as well as the number of entries from the perimeter area into the center of the arena were automatically measured over a 4-minute period, using EthoVision XT video tracking system and software (Noldus, The Netherlands). Twenty-four hours after the LPS injection, mice were tested in the Social Exploration Test. […] Social exploration, defined as the time of near contact between the nose of the subject and the juvenile in the small cage was recorded for 4 min, using computerized in-house software. Sucrose preference was assessed, as described above, between 8 to 27 hr post LPS injection. Body weight and weight of the food were measured two hours before the LPS injection, and again after 24 hours, and the change in body weight and food consumption were calculated. […]

C=C1CC/C=C(\C)CC[C@@H]2[C@@H]1CC2(C)C [β-caryophyllene]
sucrose preference compared with vehicle-treated groups: significantly increased sucrose preference
